# Data published in patent publication US20150087673A1, “METHODS FOR USING AND BIOMARKERS FOR AMPK-ACTIVATING COMPOUNDS” (RIGEL PHARMACEUTICALS, INC., priority 2013, published 2015).
# Key:
# AMPK [1] = assay: AMPK activation assay (enzyme-linked immunosorbent assay); type: cell-based
# How it was run: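 Kit-based immunoassay; compounds screened as activators; standard reagents and protocol.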
# db/db mice [2] = assay: [U-13C]-palmitate tracer analysis (13CO2/12CO2 enrichment) in db/db mice; type: in vivo, mouse
# Source text: The elevated levels of BHBA detected by the global metabolite profiling are an indirect indicator of an increase in lipid oxidation. […] Appearance of ^13CO2 occurs via β-oxidation of the labeled palmitate to release ^13C-acetyl CoA, which must pass through one round of the TCA cycle before the labeled carbon can be given off as ^13CO2. An increased β-oxidation rate will result in a corresponding increase in ^13CO2 enrichment. In agreement with the elevation in relative BHBA levels detected in liver, adipose, and skeletal muscle tissues, an increase in ^13CO2 enrichment is observed for compound 309 treatment across all three tissues at both 60 and 120 minutes after palmitate administration. Ratios of ^13CO2 to ^12CO2 were higher for all treatment groups, including the vehicle, at 120 minutes compared to 60 minutes after palmitate feeding (FIG. 2). This time-dependent elevation was due to the slow absorption kinetics of the orally administered tracer suspension.
# Male db/db mice (8 weeks) were orally gavaged once daily with vehicle, 5 mg/kg compound 309, or 10 mg/kg compound 309. Thirty minutes after dosing at day 8, 0.5 mg/kg of the metabolic tracer was administered, either via intraperitoneal injection for [U-^13C]-glucose or oral gavage for [U-^13C]-palmitate, followed by collection of liver, muscle, adipose tissue, and plasma at the timepoints indicated in the figure legends. Frozen samples were sent to SiDMAP, LLC (Los Angeles, Calif.) for isotope tracer analysis [Boros L G, Huang D, Heaney A P (2012) Fructose Drives Glucose via Direct Oxidation and Promotes Palmitate/Oleate Co-Release from Hepg2 Cells: Relevance with the Randle Cycle. […]
# The elevated levels of BHBA detected by the global metabolite profiling are an indirect indicator that compound 309 treatment increases lipid oxidation. […] In agreement with the elevation in relative BHBA levels detected in liver, adipose, and skeletal muscle tissues, an increase in ^13CO2 enrichment is observed for compound 309 treatment across all three tissues at both 60 and 120 minutes after palmitate administration. […]
# db/db mice [3] = assay: [U-13C]-D-glucose tracer analysis in db/db mice; type: in vivo, mouse
# Experimental: Male db/db mice (8 weeks) were orally gavaged once daily with vehicle, 5 mg/kg compound 309, or 10 mg/kg compound 309. Thirty minutes after dosing at day 8, 0.5 mg/kg of the metabolic tracer was administered, either via intraperitoneal injection for [U-^13C]-glucose or oral gavage for [U-^13C]-palmitate, followed by collection of liver, muscle, adipose tissue, and plasma at the timepoints indicated in the figure legends. Frozen samples were sent to SiDMAP, LLC (Los Angeles, Calif.) for isotope tracer analysis [Boros L G, Huang D, Heaney A P (2012) Fructose Drives Glucose via Direct Oxidation and Promotes Palmitate/Oleate Co-Release from Hepg2 Cells: Relevance with the Randle Cycle. Metabolomics 2: 107-115; Huang J, Simcox J, Mitchell T C, Jones D, Cox J, et al. (2013) Iron regulates glucose homeostasis in liver and muscle via AMP-activated protein kinase in mice. FASEB J.]. [U-^13C]-D-glucose and [U-^13C]-palmitate were from Sigma-Aldrich. Sample preparation, analysis, and informatics were performed on blinded samples. Statistical analyses were performed using the 2-tailed Student t test.
# A more sensitive [U-^13C]-D-glucose tracer analysis was carried out as follows: Non-fasted db/db mice treated with vehicle or compound 309 for one week were given an intraperitoneal injection of an [U-^13C]-D-glucose tracer (0.5 mg/kg) followed by measurements of tracer carbon incorporation into various metabolites after glucose injection.
# AMPK [4] = assay: AMPK activation in liver and muscle lysates after a single oral administration; type: in vivo, mouse; details: normal C57BL/6J mice, single oral administration of 10 mg/kg
# [5] = Compound plasma levels after oral dosing; type: in vivo, mouse
# Experimental: Metabolite profiling of tissues from db/db mice orally dosed with either vehicle or 10 mg/kg compound 309 was used to characterize in detail the effects of the present AMPK activators on nutrient pathways in a commonly used mouse model of type 2 diabetes. […] Since AMPK activation results in both acute and chronic changes to metabolic pathways, samples from non-fasted mice treated for three days with compound 309 were analyzed. Samples were collected thirty minutes after compound dosing when compound 309 plasma levels as well as tissue AMPK activation were maximal.
# glucose uptake = assay: Glucose uptake in vitro; type: cell-based
# gluconeogenesis = assay: Gluconeogenesis in vitro; type: cell-based
smiles,measurement,setting,value
"COc1ccc(C(=O)C2CCN(C(=O)c3ccc(C(=O)NC4CCN(Cc5ccc(C#N)cc5)CC4)cn3)CC2)cc1 [Compound 309, N-(1-(4-cyanobenzyl)piperidin-4-yl)-6-(4-(4-methoxybenzoyl)piperidine-1-carbonyl)nicotinamide]",EC50,AMPK [1],< 500 nM
same,13CO2 enrichment after [U-13C]-palmitate,"db/db mice [2]; liver, adipose and skeletal muscle, 60 and 120 minutes after palmitate administration, treated one week",increase
same,fatty acid oxidation,"db/db mice [2]; liver, skeletal muscle and adipose tissue, chronic treatment of db/db mice",directly upregulated
same,dose-dependence of 13CO2 enrichment after [U-13C]-palmitate,"db/db mice [2]; skeletal muscle, 5 and 10 mg/kg",no dose-dependence
same,skeletal muscle palmitate and myristate levels,db/db mice [3]; after saponification of muscle acylglycerols and acylcarnitines,significant decreases
same,13CO2 release (glucose oxidation via the TCA cycle),db/db mice [3]; all three tissues,increased
same,13CO2 enrichment after [U-13C]-D-glucose,"db/db mice [3]; liver and adipose tissues, 60 and 90 minutes post-tracer",clear dose-dependent increase
same,13C-labeled fraction of palmitate,"db/db mice [3]; plasma or liver, data not shown",no increase
same,dose-dependence of complete glucose tracer oxidation,db/db mice [3]; skeletal muscle,no dose-dependence
same,13C-labeled fatty acids in palmitate and myristate pools,"db/db mice [3]; skeletal muscle, 60 and 90 minutes",significantly enriched
same,13CO2 enrichment after [U-13C]-D-glucose vs vehicle,"db/db mice [3]; skeletal muscle, 60 minutes",no differences
same,level of 13C-labeled myristate compared to vehicle,"db/db mice [3]; skeletal muscle, 90 minute timepoint",two-fold higher
same,tracer oxidation (13CO2 enrichment) after [U-13C]-D-glucose,"db/db mice [3]; skeletal muscle, 90 minutes",clearly sustained
same,AMPK activation in liver and muscle lysates,AMPK [4],robust AMPK activation
same,time after compound dosing when plasma levels were maximal,[5],thirty
same,glucose uptake,glucose uptake,robust enhancement
same,gluconeogenesis,gluconeogenesis,reduction
